Laboratory results taken from ChEMBL document CHEMBL4507297, “Data for DCP probe PF-04457845” (2021).

Assays:
[1] = biological target: ALK tyrosine kinase receptor (Homo sapiens) (UniProt Q9UM73); details: Compound concentration 1000.0 nM
[2] = biological target: Aurora kinase B (Homo sapiens) (UniProt Q96GD4); details: Compound concentration 1000.0 nM
[3] = biological target: Calcium/calmodulin-dependent protein kinase type 1 (Homo sapiens) (UniProt Q14012); details: Compound concentration 1000.0 nM
[4] = biological target: Cyclin-dependent kinase 4 (Homo sapiens) (UniProt P11802); details: Compound concentration 1000.0 nM
[5] = biological target: Serine/threonine-protein kinase Chk2 (Homo sapiens) (UniProt O96017); details: Compound concentration 1000.0 nM
[6] = biological target: Citron Rho-interacting kinase (Homo sapiens) (UniProt O14578); details: Compound concentration 1000.0 nM
[7] = biological target: Macrophage colony-stimulating factor 1 receptor (Homo sapiens) (UniProt P07333); details: Compound concentration 1000.0 nM
[8] = biological target: Casein kinase I isoform gamma-1 (Homo sapiens) (UniProt Q9HCP0); details: Compound concentration 1000.0 nM
[9] = biological target: Casein kinase II subunit alpha' (Homo sapiens) (UniProt P19784); details: Compound concentration 1000.0 nM
[10] = biological target: Serine/threonine-protein kinase 17A (Homo sapiens) (UniProt Q9UEE5); details: Compound concentration 1000.0 nM
[11] = biological target: Ephrin type-A receptor 5 (Homo sapiens) (UniProt P54756); details: Compound concentration 1000.0 nM
[12] = biological target: Ephrin type-B receptor 4 (Homo sapiens) (UniProt P54760); details: Compound concentration 1000.0 nM
[13] = biological target: Receptor tyrosine-protein kinase erbB-4 (Homo sapiens) (UniProt Q15303); details: Compound concentration 1000.0 nM
[14] = biological target: Mitogen-activated protein kinase 4 (Homo sapiens) (UniProt P31152); details: Compound concentration 1000.0 nM
[15] = biological target: Rhodopsin kinase GRK1 (Homo sapiens) (UniProt Q15835); details: Compound concentration 1000.0 nM
[16] = biological target: Insulin-like growth factor 1 receptor (Homo sapiens) (UniProt P08069); details: Compound concentration 1000.0 nM
[17] = biological target: Tyrosine-protein kinase ITK/TSK (Homo sapiens) (UniProt Q08881); details: Compound concentration 1000.0 nM
[18] = biological target: Tyrosine-protein kinase JAK2 (Homo sapiens) (UniProt O60674); details: Compound concentration 1000.0 nM
[19] = biological target: Mitogen-activated protein kinase 9 (Homo sapiens) (UniProt P45984); details: Compound concentration 1000.0 nM
[20] = biological target: Mitogen-activated protein kinase kinase kinase 13 (Homo sapiens) (UniProt O43283); details: Compound concentration 1000.0 nM
[21] = biological target: Hepatocyte growth factor receptor (Homo sapiens) (UniProt P08581); details: Compound concentration 1000.0 nM
[22] = biological target: Misshapen-like kinase 1 (Homo sapiens) (UniProt Q8N4C8); details: Compound concentration 1000.0 nM
[23] = biological target: Mitogen-activated protein kinase kinase kinase 10 (Homo sapiens) (UniProt Q02779); details: Compound concentration 1000.0 nM
[24] = biological target: Serine/threonine-protein kinase 38-like (Homo sapiens) (UniProt Q9Y2H1); details: Compound concentration 1000.0 nM
[25] = biological target: Cyclin-dependent kinase 14 (Homo sapiens) (UniProt O94921); details: Compound concentration 1000.0 nM
[26] = biological target: Serine/threonine-protein kinase PLK2 (Homo sapiens) (UniProt Q9NYY3); details: Compound concentration 1000.0 nM
[27] = biological target: Protein kinase C delta type (Homo sapiens) (UniProt Q05655); details: Compound concentration 1000.0 nM
[28] = biological target: Serine/threonine-protein kinase SIK3 (Homo sapiens) (UniProt Q9Y2K2); details: Compound concentration 1000.0 nM
[29] = biological target: Ribosomal protein S6 kinase alpha-1 (Homo sapiens) (UniProt Q15418); details: Compound concentration 1000.0 nM
[30] = biological target: Ribosomal protein S6 kinase alpha-2 (Homo sapiens) (UniProt Q15349); details: Compound concentration 1000.0 nM
[31] = biological target: Serine/threonine-protein kinase Sgk2 (Homo sapiens) (UniProt Q9HBY8); details: Compound concentration 1000.0 nM
[32] = biological target: Serine/threonine-protein kinase TAO2 (Homo sapiens) (UniProt Q9UL54); details: Compound concentration 1000.0 nM
[33] = biological target: Non-receptor tyrosine-protein kinase TNK1 (Homo sapiens) (UniProt Q13470); details: Compound concentration 1000.0 nM
[34] = biological target: Serine/threonine-protein kinase ULK3 (Homo sapiens) (UniProt Q6PHR2); details: Compound concentration 1000.0 nM
[35] = biological target: 5-hydroxytryptamine receptor 1E (Homo sapiens) (UniProt P28566); details: Compound concentration 10.0 uM
[36] = biological target: Sodium-dependent noradrenaline transporter (Homo sapiens) (UniProt P23975); details: Compound concentration 10.0 uM
[37] = biological target: Mu-type opioid receptor (Homo sapiens) (UniProt P35372); details: Compound concentration 10.0 uM
[38] = biological target: T1, Alpha-2A adrenergic receptor (Homo sapiens) (UniProt P08913); details: Compound concentration 10.0 uM
T1 sequence (whole entry): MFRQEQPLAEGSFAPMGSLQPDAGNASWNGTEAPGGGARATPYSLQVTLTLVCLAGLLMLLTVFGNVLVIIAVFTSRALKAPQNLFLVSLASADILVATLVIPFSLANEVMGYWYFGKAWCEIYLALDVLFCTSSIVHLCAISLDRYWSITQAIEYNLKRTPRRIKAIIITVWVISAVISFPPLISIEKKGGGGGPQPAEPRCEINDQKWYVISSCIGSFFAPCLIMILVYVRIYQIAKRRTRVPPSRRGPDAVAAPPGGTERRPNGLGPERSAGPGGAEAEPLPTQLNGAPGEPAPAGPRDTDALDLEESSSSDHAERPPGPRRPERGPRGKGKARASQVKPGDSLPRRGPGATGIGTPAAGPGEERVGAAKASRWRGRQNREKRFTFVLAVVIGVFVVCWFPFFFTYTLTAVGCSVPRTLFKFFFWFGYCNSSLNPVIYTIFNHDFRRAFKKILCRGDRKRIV

[39] = biological target: Beta-1 adrenergic receptor (Homo sapiens) (UniProt P08588); details: Compound concentration 10.0 uM
[40] = biological target: Muscarinic acetylcholine receptor M3 (Homo sapiens) (UniProt P20309); details: Compound concentration 10.0 uM
Muscarinic acetylcholine receptor M3 (Homo sapiens), sequence (P20309 whole entry, looked up): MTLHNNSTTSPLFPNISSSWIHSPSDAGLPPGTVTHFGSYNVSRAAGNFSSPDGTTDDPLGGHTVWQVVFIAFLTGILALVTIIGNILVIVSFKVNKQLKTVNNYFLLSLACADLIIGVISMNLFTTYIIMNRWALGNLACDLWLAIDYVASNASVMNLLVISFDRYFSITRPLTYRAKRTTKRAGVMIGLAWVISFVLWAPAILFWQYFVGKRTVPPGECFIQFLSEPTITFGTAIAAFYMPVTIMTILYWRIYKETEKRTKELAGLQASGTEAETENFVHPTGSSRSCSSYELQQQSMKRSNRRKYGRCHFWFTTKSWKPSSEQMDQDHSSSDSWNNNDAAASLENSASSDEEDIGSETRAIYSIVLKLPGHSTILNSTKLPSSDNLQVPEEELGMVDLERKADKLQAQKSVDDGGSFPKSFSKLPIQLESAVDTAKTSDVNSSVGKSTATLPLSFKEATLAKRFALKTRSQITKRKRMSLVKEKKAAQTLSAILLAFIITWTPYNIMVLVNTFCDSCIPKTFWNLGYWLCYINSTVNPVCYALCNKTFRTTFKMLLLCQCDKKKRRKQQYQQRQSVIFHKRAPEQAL

Insulin-like growth factor 1 receptor (Homo sapiens), sequence (P08069 31-736 limits assumed): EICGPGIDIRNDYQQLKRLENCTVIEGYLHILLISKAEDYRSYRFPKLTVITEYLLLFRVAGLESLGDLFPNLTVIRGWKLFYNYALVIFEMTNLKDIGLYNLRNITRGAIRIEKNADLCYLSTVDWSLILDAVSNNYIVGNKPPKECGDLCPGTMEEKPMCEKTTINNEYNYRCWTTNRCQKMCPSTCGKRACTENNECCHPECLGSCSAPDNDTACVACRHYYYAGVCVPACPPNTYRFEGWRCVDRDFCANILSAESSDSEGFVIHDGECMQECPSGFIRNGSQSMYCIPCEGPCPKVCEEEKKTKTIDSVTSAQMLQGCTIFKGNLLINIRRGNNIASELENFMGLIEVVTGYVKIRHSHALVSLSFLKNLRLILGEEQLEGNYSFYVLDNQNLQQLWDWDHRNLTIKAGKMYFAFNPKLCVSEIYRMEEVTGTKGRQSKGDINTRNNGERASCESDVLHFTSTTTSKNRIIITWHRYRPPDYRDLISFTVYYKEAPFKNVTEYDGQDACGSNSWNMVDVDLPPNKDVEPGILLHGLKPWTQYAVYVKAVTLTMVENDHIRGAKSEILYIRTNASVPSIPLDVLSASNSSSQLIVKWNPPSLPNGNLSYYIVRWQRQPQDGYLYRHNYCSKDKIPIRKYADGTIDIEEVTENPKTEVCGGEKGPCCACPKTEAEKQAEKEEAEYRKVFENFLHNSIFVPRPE
Insulin-like growth factor 1 receptor (Homo sapiens), sequence (P08069 741-1367 limits assumed): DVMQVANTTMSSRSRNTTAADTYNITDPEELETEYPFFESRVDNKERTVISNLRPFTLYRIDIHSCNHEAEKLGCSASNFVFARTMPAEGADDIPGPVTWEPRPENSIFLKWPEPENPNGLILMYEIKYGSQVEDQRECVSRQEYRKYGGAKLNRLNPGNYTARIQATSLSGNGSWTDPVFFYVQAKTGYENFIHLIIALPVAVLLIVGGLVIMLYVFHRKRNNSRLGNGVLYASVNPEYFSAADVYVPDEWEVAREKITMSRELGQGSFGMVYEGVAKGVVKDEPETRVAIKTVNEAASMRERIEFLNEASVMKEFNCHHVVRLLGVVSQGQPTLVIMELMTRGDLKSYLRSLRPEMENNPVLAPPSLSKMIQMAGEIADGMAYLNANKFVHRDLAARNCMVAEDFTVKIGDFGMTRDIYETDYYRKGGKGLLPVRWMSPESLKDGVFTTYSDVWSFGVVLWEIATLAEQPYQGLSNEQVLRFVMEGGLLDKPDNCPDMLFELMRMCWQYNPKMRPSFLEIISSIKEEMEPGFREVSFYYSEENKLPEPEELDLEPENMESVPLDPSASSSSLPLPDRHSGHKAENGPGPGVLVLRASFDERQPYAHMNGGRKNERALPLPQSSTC
Serine/threonine-protein kinase Chk2 (Homo sapiens), sequence (O96017 whole entry): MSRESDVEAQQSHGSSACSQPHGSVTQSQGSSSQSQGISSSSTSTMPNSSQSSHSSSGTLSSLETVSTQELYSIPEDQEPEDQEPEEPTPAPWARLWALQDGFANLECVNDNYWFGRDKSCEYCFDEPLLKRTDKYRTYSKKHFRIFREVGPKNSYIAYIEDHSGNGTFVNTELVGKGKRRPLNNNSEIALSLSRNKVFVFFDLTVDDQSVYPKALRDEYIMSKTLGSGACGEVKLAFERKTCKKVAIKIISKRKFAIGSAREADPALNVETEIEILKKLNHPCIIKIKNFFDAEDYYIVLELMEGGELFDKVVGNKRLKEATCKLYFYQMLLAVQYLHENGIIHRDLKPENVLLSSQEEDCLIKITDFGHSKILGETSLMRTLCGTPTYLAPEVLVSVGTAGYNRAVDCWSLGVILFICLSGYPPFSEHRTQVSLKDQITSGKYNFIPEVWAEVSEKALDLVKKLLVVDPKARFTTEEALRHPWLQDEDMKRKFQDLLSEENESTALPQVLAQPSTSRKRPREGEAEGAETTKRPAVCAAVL
Mu-type opioid receptor (Homo sapiens), sequence (P35372 whole entry): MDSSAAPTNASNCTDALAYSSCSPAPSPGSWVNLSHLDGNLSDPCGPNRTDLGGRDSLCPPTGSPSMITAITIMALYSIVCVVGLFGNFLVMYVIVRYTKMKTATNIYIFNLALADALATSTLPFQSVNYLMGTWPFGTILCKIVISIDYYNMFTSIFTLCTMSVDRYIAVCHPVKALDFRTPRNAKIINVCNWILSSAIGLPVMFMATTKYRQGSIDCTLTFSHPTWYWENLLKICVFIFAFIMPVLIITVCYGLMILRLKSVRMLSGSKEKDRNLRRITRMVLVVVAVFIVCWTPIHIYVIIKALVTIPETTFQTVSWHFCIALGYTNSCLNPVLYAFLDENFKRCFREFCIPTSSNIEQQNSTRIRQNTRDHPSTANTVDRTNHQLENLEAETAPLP
Serine/threonine-protein kinase ULK3 (Homo sapiens), sequence (Q6PHR2 whole entry): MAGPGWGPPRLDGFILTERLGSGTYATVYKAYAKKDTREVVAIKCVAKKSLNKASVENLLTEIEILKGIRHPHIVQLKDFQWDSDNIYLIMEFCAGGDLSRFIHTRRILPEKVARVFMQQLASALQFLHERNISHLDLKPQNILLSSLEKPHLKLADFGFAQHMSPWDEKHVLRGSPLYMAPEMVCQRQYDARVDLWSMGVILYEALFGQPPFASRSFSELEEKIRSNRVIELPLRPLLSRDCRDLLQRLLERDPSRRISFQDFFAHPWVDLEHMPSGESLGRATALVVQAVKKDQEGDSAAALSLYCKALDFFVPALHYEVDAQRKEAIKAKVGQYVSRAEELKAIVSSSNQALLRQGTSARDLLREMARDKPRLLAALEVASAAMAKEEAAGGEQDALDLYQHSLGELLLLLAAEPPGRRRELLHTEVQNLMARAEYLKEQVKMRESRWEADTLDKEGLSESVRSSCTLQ
Non-receptor tyrosine-protein kinase TNK1 (Homo sapiens), sequence (Q13470 whole entry): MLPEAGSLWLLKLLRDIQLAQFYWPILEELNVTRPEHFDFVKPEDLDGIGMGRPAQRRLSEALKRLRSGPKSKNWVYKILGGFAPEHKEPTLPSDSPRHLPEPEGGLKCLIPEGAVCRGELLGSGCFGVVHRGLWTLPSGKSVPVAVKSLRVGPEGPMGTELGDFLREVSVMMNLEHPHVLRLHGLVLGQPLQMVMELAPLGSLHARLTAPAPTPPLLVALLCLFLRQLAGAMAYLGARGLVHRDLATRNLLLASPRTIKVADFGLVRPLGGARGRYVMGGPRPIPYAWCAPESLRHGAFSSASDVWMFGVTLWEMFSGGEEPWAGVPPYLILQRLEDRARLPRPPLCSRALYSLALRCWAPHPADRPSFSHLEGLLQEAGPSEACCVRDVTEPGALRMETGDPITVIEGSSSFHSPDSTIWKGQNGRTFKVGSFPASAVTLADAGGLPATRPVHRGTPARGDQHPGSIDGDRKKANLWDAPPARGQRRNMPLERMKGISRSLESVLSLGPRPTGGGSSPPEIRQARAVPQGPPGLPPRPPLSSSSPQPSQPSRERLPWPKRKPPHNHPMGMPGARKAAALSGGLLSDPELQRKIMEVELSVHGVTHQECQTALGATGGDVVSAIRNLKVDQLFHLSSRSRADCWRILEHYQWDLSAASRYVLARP
Casein kinase I isoform gamma-1 (Homo sapiens), sequence (Q9HCP0 whole entry, looked up, canonical isoform): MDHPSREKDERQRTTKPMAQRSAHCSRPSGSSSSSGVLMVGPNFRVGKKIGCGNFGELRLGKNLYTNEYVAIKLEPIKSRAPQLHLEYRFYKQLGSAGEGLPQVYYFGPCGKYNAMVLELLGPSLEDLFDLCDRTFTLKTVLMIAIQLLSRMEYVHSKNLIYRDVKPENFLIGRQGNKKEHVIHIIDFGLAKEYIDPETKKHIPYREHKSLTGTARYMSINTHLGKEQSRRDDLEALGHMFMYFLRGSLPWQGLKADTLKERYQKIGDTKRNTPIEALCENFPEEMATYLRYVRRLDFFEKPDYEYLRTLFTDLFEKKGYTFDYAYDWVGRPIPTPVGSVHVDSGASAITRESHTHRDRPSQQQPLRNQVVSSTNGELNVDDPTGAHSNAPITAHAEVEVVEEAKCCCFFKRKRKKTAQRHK
Serine/threonine-protein kinase 38-like (Homo sapiens), sequence (Q9Y2H1 2-464 limits assumed): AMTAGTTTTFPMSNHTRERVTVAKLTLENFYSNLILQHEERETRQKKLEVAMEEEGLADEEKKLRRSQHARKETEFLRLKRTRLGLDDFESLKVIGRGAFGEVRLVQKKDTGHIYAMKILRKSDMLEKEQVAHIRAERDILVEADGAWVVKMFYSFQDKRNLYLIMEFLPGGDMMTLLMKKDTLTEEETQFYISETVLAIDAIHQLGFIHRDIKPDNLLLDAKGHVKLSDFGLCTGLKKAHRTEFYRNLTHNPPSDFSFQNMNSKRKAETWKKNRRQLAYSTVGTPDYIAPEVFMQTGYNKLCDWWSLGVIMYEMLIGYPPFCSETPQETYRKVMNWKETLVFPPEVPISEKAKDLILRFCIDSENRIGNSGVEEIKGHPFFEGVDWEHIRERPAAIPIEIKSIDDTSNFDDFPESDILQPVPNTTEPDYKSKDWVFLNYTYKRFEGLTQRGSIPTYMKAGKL

| SMILES | residual activity [1] [%] | residual activity [2] [%] | residual activity [3] [%] | residual activity [4] [%] | residual activity [5] [%] | residual activity [6] [%] | residual activity [7] [%] | residual activity [8] [%] | residual activity [9] [%] | residual activity [10] [%] | residual activity [11] [%] | residual activity [12] [%] | residual activity [13] [%] | residual activity [14] [%] | residual activity [15] [%] | residual activity [16] [%] | residual activity [17] [%] | residual activity [18] [%] | residual activity [19] [%] | residual activity [20] [%] | other results |
| --- | --- | --- | --- | --- | --- | --- | --- | --- | --- | --- | --- | --- | --- | --- | --- | --- | --- | --- | --- | --- | --- |
| O=C(Nc1cccnn1)N1CC(C/C=C/c2cncc(Oc3ccc(C(F)(F)F)cn3)n2)C1 | 97 | 59 | 100 | 94 | 100 | 100 | 87 | 100 | 100 | 100 | 85 | 100 | 100 | 100 | 82 | 100 | 100 | 88 | 72 | 0 | residual activity [21]: 95%; residual activity [22]: 100%; residual activity [23]: 100%; residual activity [24]: 100%; residual activity [25]: 100%; residual activity [26]: 60%; residual activity [27]: 100%; residual activity [28]: 74%; residual activity [29]: 100%; residual activity [30]: 100%; residual activity [31]: 74%; residual activity [32]: 66%; residual activity [33]: 100%; residual activity [34]: 82%; inhibition [35]: 0.84%; inhibition [36]: -1%; inhibition [37]: 1.18%; inhibition [38]: 0.68%; inhibition [39]: 1.97%; inhibition [40]: 0.26% |
| O=C(Nc1cccnn1)N1CCC(=Cc2cccc(Oc3ccc(C(F)(F)F)cn3)c2)CC1 | 100 | 100 | 100 | 96 | 94 | 79 | 100 | 100 | 100 | 79 | 98 | 69 | 100 | 95 | 89 | 87 | 100 | 100 | 100 | 100 | residual activity [21]: 100%; residual activity [22]: 100%; residual activity [23]: 100%; residual activity [24]: 84%; residual activity [25]: 89%; residual activity [26]: 100%; residual activity [27]: 93%; residual activity [28]: 83%; residual activity [29]: 100%; residual activity [30]: 100%; residual activity [31]: 100%; residual activity [32]: 100%; residual activity [33]: 98%; residual activity [34]: 100%; inhibition [35]: 19%; inhibition [36]: 7.86%; inhibition [37]: 17.5%; inhibition [38]: 34.5%; inhibition [39]: 16.5%; inhibition [40]: 27.5% |
